According to patent US20130267474A1, “NOVEL PHYTOCHEMICALS FROM EXTRACTS OF MAPLE SYRUPS AND MAPLE TREES AND USES THEREOF” (UNIVERSITY OF RHODE ISLAND, priority 2010, published 2013):
Converted amounts (≈) assume the structure as drawn. Like-named read-outs stand apart in the source and are kept apart here.

Legend:
[1] = system: HCT-116 (human colon carcinoma); experiment: MTS cytotoxicity / antiproliferative assay; format: cell-based; details: for HCT-116 48 h IC50 / HCT-116 72 h IC50: ginnalins
Description: (§1) Cell lines included three human colon cancer cells: HT-29 (human colon adenocarcinoma), HCT116 (human colon carcinoma) and Caco-2 (human epithelial colorectal adenocarcinoma). In addition, normal human colon cells are included: CCD-^18Co (human colon fibroblasts). All cell lines are obtained from the American Type Culture Collection (ATCC, Rockville, Md., USA) and maintained at the University of Rhode Island.
(§2) The assay is carried out to measure the IC50 values for samples. […] Test samples and a positive control, etoposide 4 mg/mL (Sigma), are solubilized in DMSO by sonication. […] Control wells are also included on all plates. […] Each point on the curve is […]. Data (see tables 6 to 9) are expressed as mean±SE for three replications on each cell line.

[2] = system: HT-29 (human colon adenocarcinoma); experiment: MTS cytotoxicity / antiproliferative assay; format: cell-based; details: for HT-29 48 h IC50 / HT-29 72 h IC50: ginnalins
Description: as §1, §2

[3] = system: Caco-2 (human epithelial colorectal adenocarcinoma); experiment: MTS cytotoxicity / antiproliferative assay; format: cell-based; details: for Caco-2 48 h IC50 / Caco-2 72 h IC50: ginnalins
Description: as §1, §2

[4] = system: CCD-18Co (normal human colon fibroblasts); experiment: MTS cytotoxicity / antiproliferative assay; format: cell-based; details: 72 h, 72 h; for CCD-18Co 72 h IC50: ginnalins
Description: as §1, §2

[5] = system: colon cancer (HCT-116, Caco-2 and HT-29) cell lines; experiment: MTS antiproliferative assay, statements pooled over the colon cancer cell lines; details: Homo sapiens, read-out: IC50 range, MTS assay, ginnalins, colon cell lines
[6] = DPPH radical scavenging (antioxidant) assay; format: biochemical; details: Table 10; mean ± standard deviation; 30 min, 515 nm; read-out: IC50 (μM), DPPH radical scavenging
Description: The DPPH radical scavenging activity of ascorbic acid (vitamin C) and the synthetic commercial antioxidant, butylated hydroxytoluene (BHT) are also assayed as positive controls (see Table 10). […] Absorbance is determined after 30 min at 515 nm, and the scavenging capacity (SC) is calculated as SC %=[(A0−A1/A0)]×100, where A0 is the absorbance of the reagent blank and A1 is the absorbance of the test samples. The control contained all reagents except the compounds, and all tests are performed in triplicate.
Absorbance is determined after 30 min at 515 nm, and the scavenging capacity (SC) is calculated as SC %=[(A0−A1/A0)]×100 where A0 is the absorbance of the reagent blank, and A1 is the absorbance with test samples. The control contained all reagents except the compounds and all tests are performed in triplicate.

[7] = Homo sapiens, HCT-116, 48 h, read-out: HCT-116 48 h(IC50), Table 6 maple compounds, 48 h, unit inferred
[8] = Homo sapiens, HCT-116, 72 h, Table 6 maple compounds, 72 h, unit inferred, read-out: HCT-116 72 h(IC50)
[9] = Homo sapiens, HT-29, 48 h, read-out: HT-29 48 h(IC50), Table 6 maple compounds, 48 h, unit inferred
[10] = Homo sapiens, HT-29, 72 h, Table 6 maple compounds, 72 h, unit inferred, read-out: HT-29 72 h(IC50)
[11] = Homo sapiens, Caco-2, 48 h, read-out: Caco-2 48 h(IC50), Table 6 maple compounds, 48 h, unit inferred
[12] = Homo sapiens, Caco-2, 72 h, Table 6 maple compounds, 72 h, unit inferred, read-out: Caco-2 72 h(IC50)
[13] = Homo sapiens, CCD-18Co, Table 6 maple compounds, unit inferred, read-out: CCD-18Co 72 h(IC50)
[14] = Homo sapiens, HCT-116, 48 h, read-out: Antiproliferative activity HCT-116 48 h (IC50), 48 h, pure isolated compounds
[15] = Homo sapiens, HCT-116, 72 h, 72 h, pure isolated compounds, read-out: Antiproliferative activity HCT-116 72 h (IC50)
[16] = Homo sapiens, HCT-116, 72 h, 72 h, range given for the group, read-out: IC50 against HCT-116 cells at 72 h (activity ranking)
[17] = Homo sapiens, HT-29, 48 h, read-out: Antiproliferative activity HT-29 48 h (IC50), 48 h, pure isolated compounds
[18] = Homo sapiens, HT-29, 72 h, 72 h, pure isolated compounds, read-out: Antiproliferative activity HT-29 72 h (IC50)
[19] = Homo sapiens, Caco-2, 48 h, read-out: Antiproliferative activity Caco-2 48 h (IC50), 48 h, pure isolated compounds
[20] = Homo sapiens, Caco-2, 72 h, 72 h, pure isolated compounds, read-out: Antiproliferative activity Caco-2 72 h (IC50)
[21] = Homo sapiens, CCD-18Co, pure isolated compounds, read-out: Antiproliferative activity CCD-8Co 72 h (IC50)
[22] = Homo sapiens, HCT-116, 72 h, 72 h, range given for the group, unit inferred, read-out: IC50 against HCT-116 cells at 72 h (moderately active group)

SMILES	IC50 [6] [µM]	IC50 [1, 7] [µM]	IC50 [1, 8] [µM]	IC50 [2, 9] [µM]	IC50 [2, 10] [µM]	IC50 [3, 11] [µM]	IC50 [3, 12] [µM]	IC50 [1, 14] [µM]	IC50 [1, 15] [µM]	IC50 [1, 16] [µM]	IC50 [2, 17] [µM]	IC50 [2, 18] [µM]	IC50 [3, 19] [µM]	IC50 [3, 20] [µM]	IC50 [4, 21] [µM]	also measured
COc1cc(C2Oc3c(OC)cc(CCCO)cc3C2CO)cc(OC)c1O (stereo not drawn) [compound 4]	–	78	59.1	88.7	68.2	85	70.9	–	–	–	–	–	–	–	–	IC50 [4, 13]: 99.6 µM
O=C(OC[C@H]1OC[C@H](OC(=O)c2cc(O)c(O)c(O)c2)[C@@H](O)[C@@H]1O)c1cc(O)c(O)c(O)c1 [compound 70, 2,6-di-O-galloyl-1,5-anhydro-D-glucitol]	–	54.6	43.4	77	51.6	61.6	46.5	–	–	–	–	–	–	–	–	IC50 [5]: 16 to 24 µg/mL (≈ 34.2 to 51.2 µM); IC50 [4, 13]: 90.6 µM
O=C(OC[C@H]1OC[C@H](O)[C@@H](O)[C@@H]1O)c1cc(O)c(O)c(O)c1 [compound 71, ginnalin-B]	–	–	–	–	–	–	–	–	–	–	–	–	–	–	–	HCT-116 48 h IC50 ([1]; 48 h): 25.1 ± 1.8 µg/mL; HCT-116 72 h IC50 ([1]; 72 h): 20.0 ± 2.0 µg/mL; IC50 ([1]; Table 6 maple compounds, 72 h, unit inferred, read-out: HCT-116 72 h(IC50)): 50.9 µM; IC50 ([1]; read-out: HCT-116 48 h(IC50), Table 6 maple compounds, 48 h, unit inferred): 66.8 µM; HT-29 48 h IC50 ([2]; 48 h): 36.2 ± 1.5 µg/mL; HT-29 72 h IC50 ([2]; 72 h): 27.3 ± 0.6 µg/mL; IC50 ([2]; Table 6 maple compounds, 72 h, unit inferred, read-out: HT-29 72 h(IC50)): 86.5 µM; IC50 ([2]; read-out: HT-29 48 h(IC50), Table 6 maple compounds, 48 h, unit inferred): 98.9 µM; Caco-2 48 h IC50 ([3]; 48 h): 31.1 ± 1.9 µg/mL; Caco-2 72 h IC50 ([3]; 72 h): 22.6 ± 1.9 µg/mL; IC50 ([3]; Table 6 maple compounds, 72 h, unit inferred, read-out: Caco-2 72 h(IC50)): 71.6 µM; IC50 ([3]; read-out: Caco-2 48 h(IC50), Table 6 maple compounds, 48 h, unit inferred): 98.7 µM; CCD-18Co 72 h IC50 [4]: 47.1 ± 5.3 µg/mL; IC50 ([4]; Table 6 maple compounds, unit inferred, read-out: CCD-18Co 72 h(IC50)): 107 µM
OCCc1ccc(O)cc1 [compound 50, tyrosol]	–	–	–	–	–	–	–	115 ± 1.5	94.3 ± 1.8	94 to 110	128 ± 2.3	114 ± 1.8	112 ± 1.9	100 ± 2.6	145 ± 4.1	–
O=Cc1ccc(O)c(O)c1 [compound 14, catechaldehyde]	–	63.3	52.9	71.6	63.9	73.2	58.9	63.3 ± 1.3	52.9 ± 1.4	42 to 67	71.6 ± 1.5	63.9 ± 1.6	73.2 ± 1.3	58.9 ± 1.9	126 ± 4.6	IC50 [4, 13]: 126 µM
Oc1ccccc1O [compound 23, catechol]	–	–	–	–	–	–	–	86 ± 2.4	63 ± 1.3	42 to 67	99.4 ± 2.1	70.3 ± 2	71.5 ± 2.3	64.1 ± 2.5	115 ± 2.7	–
O=C(OC[C@H]1OC[C@H](OC(=O)c2cc(O)c(O)c(O)c2)[C@@H](O)[C@@H]1O)c1cc(O)c(O)c(O)c1 [Ginnalin A]	–	–	–	–	–	–	–	–	–	–	–	–	–	–	–	HCT-116 48 h IC50 ([1]; 48 h): 21.5 ± 1.6 µg/mL; HCT-116 72 h IC50 ([1]; 72 h): 16.3 ± 2.1 µg/mL; HT-29 48 h IC50 ([2]; 48 h): 31.0 ± 2.6 µg/mL; HT-29 72 h IC50 ([2]; 72 h): 24.1 ± 1.3 µg/mL; Caco-2 48 h IC50 ([3]; 48 h): 28.8 ± 1.8 µg/mL; Caco-2 72 h IC50 ([3]; 72 h): 21.7 ± 1.0 µg/mL; CCD-18Co 72 h IC50 [4]: 46.6 ± 3.6 µg/mL
COc1cc(C(CO)C(c2ccc(O)c(OC)c2)c2ccc(O)c(OC)c2)ccc1O (stereo not drawn) [compound 54, Quebecol]	–	–	–	–	–	–	–	95.3 ± 0.6	76.2 ± 1.2	–	103 ± 1.7	86.1 ± 0.8	98.2 ± 1.5	78.5 ± 1.4	120 ± 1.5	IC50 [1, 22]: 75 to 85 µM

Now from value to compound, other results behind:

IC50 [6] [µM]	SMILES	IC50 [1, 7] [µM]	IC50 [1, 8] [µM]	IC50 [2, 9] [µM]	IC50 [2, 10] [µM]	IC50 [3, 11] [µM]	IC50 [3, 12] [µM]	IC50 [1, 14] [µM]	IC50 [1, 15] [µM]	IC50 [1, 16] [µM]	IC50 [2, 17] [µM]	IC50 [2, 18] [µM]	IC50 [3, 19] [µM]	IC50 [3, 20] [µM]	IC50 [4, 21] [µM]	also measured
1540.9 ± 0.5	COc1cc(CC(CO)C(CO)Cc2ccc(O)c(OC)c2)ccc1O (stereo not drawn) [compound 2, secoisolariciresinol]	–	–	–	–	–	–	78 ± 2.3	59.1 ± 1.5	42 to 67	88.7 ± 2.2	68.2 ± 1.4	85 ± 3.8	70.9 ± 2.3	99.6 ± 4.9	–
740.2 ± 3.4	COc1ccc(C2OC(=O)C(O)(Cc3ccc(OC4OC(C)C(O)C(O)C4O)c(OC)c3)C2CO)cc1OC [compound 7, [3-[4-[(6-deoxy-α-L-mannopyranosyl)oxy]-3-methoxyphenyl]methyl]-5-(3,4-dimethoxyphenyl)dihydro-3-hydroxy-4-(hydroxymethyl)-2(3H)-furanone]	–	103	–	98.2	–	96.8	–	–	–	–	–	–	–	–	–
655 ± 14.4	COc1cc2ccc(=O)oc2cc1O [compound 8, scopoletin]	68.1	60.6	78.7	70.2	89.3	82	68.1 ± 1	60.6 ± 2	42 to 67	78.7 ± 1.2	70 ± 1.3	89.3 ± 0.9	82 ± 2	103 ± 5.9	IC50 [4, 13]: 103 µM
479 ± 42.1	COc1cc2ccc(=O)oc2c(O)c1O [compound 9, fraxetin]	112	84.5	101	93.4	–	101	112 ± 1.8	84.5 ± 1.6	–	101 ± 1.2	93.4 ± 2.6	–	101 ± 1.3	–	IC50 [1, 22]: 75 to 85 µM
578.5 ± 1.3	COc1cc(/C=C/c2ccc(O)c(OC)c2)ccc1O [compound 10, (E)-3,3′-dimethoxy-4,4′-dihydroxystilbene]	–	–	–	–	–	93.1	–	–	–	–	–	–	–	–	–
138 ± 28.2	COc1cc(C(=O)C(O)CO)ccc1O (stereo not drawn) [compound 22, C-veratroylglycol]	82.9	66.7	96	88.6	101	90.8	82.9 ± 2.1	66.7 ± 1.5	42 to 67	96 ± 1.5	88.6 ± 1.3	101 ± 1.6	90.8 ± 1	–	–
